Experiments:
Type in all cases: in vivo
[1] = test system: foxtail, giant (Setaria faberii); assay: Test A preemergence, giant foxtail; conditions: 0 to 100 scale, 0 is no effect, 100 is complete control
Procedure, shortened: (§1)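 Using a solvent/surfactant formulation, test chemicals were sprayed onto freshly seeded soil or onto 2–10 cm seedlings at the one- to two-leaf stage. Visual injury ratings on a 0–100 scale were made about 10 d later in the greenhouse.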

[2] = test system: ryegrass, Italian (Lolium multiflorum); assay: Test A postemergence, Italian ryegrass; conditions: 0 to 100 scale, 0 no effect, 100 complete control
Procedure, shortened: as §1

[3] = test system: barnyardgrass (Echinochloa crus-galli); assay: Test A postemergence, barnyardgrass; conditions: 0 to 100 scale, 0 no effect, 100 complete control
Procedure, shortened: as §1

[4] = test system: barnyardgrass (Echinochloa crus-galli); assay: Test A preemergence, barnyardgrass; conditions: 0 to 100 scale, 0 is no effect, 100 is complete control
Procedure, shortened: as §1

[5] = test system: pigweed (Amaranthus retroflexus); assay: Test A postemergence, pigweed; conditions: 0 to 100 scale, 0 no effect, 100 complete control
Procedure, shortened: as §1

[6] = test system: blackgrass (Alopecurus myosuroides); assay: Test A postemergence, blackgrass; conditions: 0 to 100 scale, 0 no effect, 100 complete control
Procedure, shortened: as §1

[7] = test system: ryegrass, Italian (Lolium multiflorum); assay: Test A preemergence, Italian ryegrass; conditions: 0 to 100 scale, 0 is no effect, 100 is complete control
Procedure, shortened: as §1

kochia (Kochia scoparia) [8] = assay: Test A postemergence, kochia; conditions: 0 to 100 scale, 0 no effect, 100 complete control
Procedure, shortened: as §1

[9] = test system: wheat (Triticum aestivum); assay: Test A postemergence, wheat; conditions: 0 to 100 scale, 0 no effect, 100 complete control
Procedure, shortened: as §1

[10] = test system: ducksalad (Heteranthera limosa); assay: Test B flooded paddy test, ducksalad; conditions: Flood, 250 g ai/ha, applied to paddy water, 2-leaf stage, visual evaluation after 13 to 15 d
Procedure, shortened: (§2)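 Growth to two leaves preceded treatment. Flooding to 3 cm above soil surface, then water-applied compound; depth kept constant. Scored visually relative to controls after 13–15 d greenhouse; 100 means full control.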

[11] = test system: ragweed (common ragweed, Ambrosia elatior); assay: Test A postemergence, ragweed; conditions: 0 to 100 scale, 0 no effect, 100 complete control
Procedure, shortened: as §1

[12] = test system: ragweed (common ragweed, Ambrosia elatior); assay: Test A preemergence, ragweed; conditions: 0 to 100 scale, 0 is no effect, 100 is complete control
Procedure, shortened: as §1

[13] = test system: pigweed (Amaranthus retroflexus); assay: Test A preemergence, pigweed; conditions: 0 to 100 scale, 0 is no effect, 100 is complete control
Procedure, shortened: as §1

[14] = test system: sedge, umbrella (small-flower umbrella sedge, Cyperus difformis); assay: Test B flooded paddy test, umbrella sedge; conditions: Flood, 250 g ai/ha, applied to paddy water, 2-leaf stage, visual evaluation after 13 to 15 d
Procedure, shortened: as §2

[15] = test system: foxtail, giant (Setaria faberii); assay: Test A postemergence, giant foxtail; conditions: 0 to 100 scale, 0 no effect, 100 complete control
Procedure, shortened: as §1

kochia (Kochia scoparia) [16] = assay: Test A preemergence, kochia; conditions: 0 to 100 scale, 0 is no effect, 100 is complete control
Procedure, shortened: as §1

[17] = test system: galium (catchweed bedstraw, Galium aparine); assay: Test A postemergence, galium; conditions: 0 to 100 scale, 0 no effect, 100 complete control
Procedure, shortened: as §1

corn (Zea mays) = assay: Test A postemergence, corn; conditions: 0 to 100 scale, 0 no effect, 100 complete control
Procedure, shortened: as §1

[18] = test system: barnyardgrass (Echinochloa crus-galli); assay: Test B flooded paddy test, barnyardgrass; conditions: Flood, 250 g ai/ha, applied to paddy water, 2-leaf stage, visual evaluation after 13 to 15 d
Procedure, shortened: as §2

rice (Oryza sativa) = assay: Test B flooded paddy test, rice; conditions: Flood, 250 g ai/ha, applied to paddy water, 2-leaf stage, visual evaluation after 13 to 15 d
Procedure, shortened: as §2

SMILES	Foxtail, Giant plant response rating ([1]; 125 g ai/ha)	Foxtail, Giant plant response rating ([1]; 500 g ai/ha)	Plant response rating, Ryegrass, Italian ([2]; 125 g ai/ha)	Plant response rating, Ryegrass, Italian ([2]; 500 g ai/ha)	Plant response rating, Barnyardgrass ([3]; 125 g ai/ha)	Plant response rating, Barnyardgrass ([3]; 500 g ai/ha)	Barnyardgrass plant response rating ([4]; 125 g ai/ha)	Barnyardgrass plant response rating ([4]; 500 g ai/ha)	Plant response rating, Pigweed ([5]; 125 g ai/ha)	Plant response rating, Pigweed ([5]; 500 g ai/ha)	Plant response rating, Blackgrass ([6]; 125 g ai/ha)	Plant response rating, Blackgrass ([6]; 500 g ai/ha)	Ryegrass, Italian plant response rating ([7]; 125 g ai/ha)	Ryegrass, Italian plant response rating ([7]; 500 g ai/ha)	Plant response rating, Kochia (kochia (Kochia scoparia) [8]; 125 g ai/ha)	Plant response rating, Kochia (kochia (Kochia scoparia) [8]; 500 g ai/ha)	Plant response rating, Wheat ([9]; 125 g ai/ha)	Plant response rating, Wheat ([9]; 500 g ai/ha)	Plant response rating, Ducksalad (0 to 100 scale, 0 is no effect, 100 is complete control) [10]	Plant response rating, Ragweed ([11]; 125 g ai/ha)	other results
CC(Nc1ncc(C(F)(F)F)c(N)n1)c1coc2cc(Cl)ccc12 (racemic) [Compound 77]	20	40	0	40	0	0	0	0	70	100	0	0	20	30	30	90	20	30	0	20	Plant response rating, Ragweed ([11]; 500 g ai/ha): 90; Ragweed plant response rating ([12]; 125 g ai/ha): 80; Ragweed plant response rating ([12]; 500 g ai/ha): 90; Pigweed plant response rating ([13]; 125 g ai/ha): 40; Pigweed plant response rating ([13]; 500 g ai/ha): 90; Plant response rating, Sedge, Umbrella (0 to 100 scale, 0 is no effect, 100 is complete control) [14]: 0; Plant response rating, Foxtail, Giant ([15]; 125 g ai/ha): 0; Plant response rating, Foxtail, Giant ([15]; 500 g ai/ha): 20; Kochia plant response rating (kochia (Kochia scoparia) [16]; 125 g ai/ha): 50; Kochia plant response rating (kochia (Kochia scoparia) [16]; 500 g ai/ha): 60; Plant response rating, Galium ([17]; 125 g ai/ha): 50; Plant response rating, Galium ([17]; 500 g ai/ha): 80; Plant response rating, Corn (corn (Zea mays); 125 g ai/ha): 0; Plant response rating, Corn (corn (Zea mays); 500 g ai/ha): 20; Plant response rating, Barnyardgrass (0 to 100 scale, 0 is no effect, 100 is complete control) [18]: 0; Plant response rating, Rice (0 to 100 scale, 0 is no effect, 100 is complete control) (rice (Oryza sativa)): 0
Nc1nc(NC(c2cc3ccccc3s2)C2CC2)ncc1C(F)(F)F (racemic) [Compound 94]	70	100	50	90	40	90	0	90	90	100	0	0	50	90	70	90	0	30	40	50	Plant response rating, Ragweed ([11]; 500 g ai/ha): 70; Ragweed plant response rating ([12]; 125 g ai/ha): 50; Ragweed plant response rating ([12]; 500 g ai/ha): 90; Pigweed plant response rating ([13]; 125 g ai/ha): 60; Pigweed plant response rating ([13]; 500 g ai/ha): 100; Plant response rating, Sedge, Umbrella (0 to 100 scale, 0 is no effect, 100 is complete control) [14]: 45; Plant response rating, Foxtail, Giant ([15]; 125 g ai/ha): 60; Plant response rating, Foxtail, Giant ([15]; 500 g ai/ha): 90; Kochia plant response rating (kochia (Kochia scoparia) [16]; 125 g ai/ha): 60; Kochia plant response rating (kochia (Kochia scoparia) [16]; 500 g ai/ha): 90; Plant response rating, Galium ([17]; 125 g ai/ha): 40; Plant response rating, Galium ([17]; 500 g ai/ha): 80; Plant response rating, Corn (corn (Zea mays); 125 g ai/ha): 0; Plant response rating, Corn (corn (Zea mays); 500 g ai/ha): 20; Plant response rating, Barnyardgrass (0 to 100 scale, 0 is no effect, 100 is complete control) [18]: 35; Plant response rating, Rice (0 to 100 scale, 0 is no effect, 100 is complete control) (rice (Oryza sativa)): 10

Reference: US20220119354A1, “DIAMINO-SUBSTITUTED PYRIDINES AND PYRIMIDINES AS HERBICIDES” (FMC Corporation, priority 2019, published 2022)
